From patent US10786690B2, “Amide derivatives of polycaffeoylquinic acids, process for producing same and uses thereof” (TEMISIS, priority 2016, dated 2020)

Test system: female Balb/c mice
Assay: Imiquimod-induced psoriasis in Balb/c mice, PASI scoring
Format: in vivo, mouse
Procedure: The study is performed on 40 female Balb/c mice, weighing roughly 18-20 g and randomized by weight into 5 groups (n=8) as function of the treatments, under controlled temperature (24±2° C.) and humidity (50±20%) conditions and with a 12-hour reversed light cycle (light from 20:00 to 08:00) (food and water ad libitum).
The compounds to be tested are as follows: • Excipial® neutral ointment (control) • PAT1657 (octyl-isochlorogenamide A) incorporated at 1.33% or 2.67% by mass in Excipial® ointment • Aldara® cream containing 5% imiquimod, an inducer of psoriasis • Dermoval® cream containing 0.05% clobetasol propionate and used for topical treatment of psoriasis (reference product)
The treatment groups are distributed as follows: • Group 1: no induction of psoriasis but cutaneous application of neutral ointment from day 1 to day 10 and treatment with Excipial® neutral ointment from day 7 to day 10 (negative control) (EP/EP); • Group 2: induction of psoriasis by cutaneous application of Aldara® cream containing imiquimod from day 1 to day 10 and treatment with Excipial® neutral ointment from day 7 to day 10 (positive control) (ALD/EP); • Group 3: induction of psoriasis by cutaneous application of Aldara® cream containing imiquimod from day 1 to day 10 and treatment with neutral ointment containing 1.33% compound PAT1657 from day 7 to day 10 (ALD/PAT1657-1.33%); • Group 4: induction of psoriasis by cutaneous application of Aldara® cream containing imiquimod from day 1 to day 10 and treatment with neutral ointment containing 2.67% compound PAT1657 from day 7 to day 10 (ALD/PAT1657-2.67%); • Group 5: induction of psoriasis by cutaneous application of Aldara® cream containing imiquimod from day 1 to day 10 and treatment with Dermoval® cream from day 7 to day 10 (ALD/Dermoval®). Induction and Maintenance of Psoriasis
To perform the induction of psoriasis, it was necessary to remove the hair from the backs of the animals by shaving and plucking to have direct access to the skin tissue. Psoriasis was induced in all mice in groups 2 to 5 by daily cutaneous application for 10 days, from day 1 to day 10, of roughly 70 mg of Aldara® cream. The cream was applied to the shaved backs of the mice with a silk brush. For the mice in group 1, daily cutaneous application of Excipial® neutral ointment was carried out under the same conditions: roughly 70 mg was applied for 10 days, from day 1 to day 10, in the morning using a silk brush.
The ointments containing compound PAT1657 at the two doses to be tested, Excipial® neutral ointment and Dermoval® cream, were administered by cutaneous applications for 4 days, from day 7 to day 10, on the backs of the mice in the psoriasis induction region. For each application, roughly 100 mg of ointment or cream was applied with a silk brush, at least 4 hours after application of Aldara® cream or Excipial® neutral ointment for induction or not of psoriasis.
The psoriasis area and severity index (PASI) was calculated daily throughout the experiment from day 1 to day 11, based on the following three parameters: • Presence of erythema, i.e. skin redness, in the psoriasis induction region, scored as follows: 0=no or no further erythema; 1=mild erythema; 2=moderate erythema; 3=severe erythema; 4=very severe erythema. • Degree of induration, i.e. skin hardening and thickening, in the psoriasis induction region, scored as follows: 0=no or no further induration; 1=mild induration; 2=moderate induration; 3=severe induration; 4=very severe induration. • Degree of desquamation, i.e. presence of plaques on the skin surface, in the psoriasis induction region, scored as follows: 0=no or no further desquamation; 1=mild desquamation; 2=moderate desquamation; 3=severe desquamation; 4=very severe desquamation.
The psoriasis area and severity index is the sum of the scores for these three parameters. […]

[1] = day 8, 1.33% in ointment, vs ALD/EP group, p=0.001
[2] = day 10, 1.33% in ointment, vs ALD/EP group, p=0.001
[3] = day 10, 2.67% in ointment, vs ALD/EP group, p=0.001
[4] = day 11, 1.33% in ointment, vs ALD/EP group, p=0.001
[5] = day 11, 2.67% in ointment, vs ALD/EP group, p=0.001

CCCCCCCCNC(=O)[C@]1(O)C[C@@H](OC(=O)/C=C/c2ccc(O)c(O)c2)[C@@H](O)[C@H](OC(=O)/C=C/c2ccc(O)c(O)c2)C1 [PAT1657, (2E,2′E)-((1R,2S,3R,5S)-2,5-dihydroxy-5-(octylcarbamoyl)cyclohexane-1,3-diyl) bis(3-(3,4-dihydroxyphenyl)acrylate)]
mean psoriasis area and severity index (PASI) [1]: significantly lower | mean score for degree of induration in the psoriasis induction region [1]: significantly lower | mean score for presence of erythema in the psoriasis induction region [1]: significantly lower | mean score for degree of desquamation in the psoriasis induction region (day 8, 1.33% in ointment, vs ALD/EP group, p=0.007): significantly lower | mean psoriasis area and severity index (PASI) (day 8, 2.67% in ointment, vs ALD/EP group, p=0.001): significantly lower | mean score for degree of induration in the psoriasis induction region (day 8, 2.67% in ointment, vs ALD/EP group, p=0.004): significantly lower | mean score for degree of desquamation in the psoriasis induction region (day 8, 2.67% in ointment, vs ALD/EP group, p=0.006): significantly lower | mean score for presence of erythema in the psoriasis induction region (day 8, 2.67% in ointment, vs ALD/EP group, p=0.007): significantly lower | mean psoriasis area and severity index (PASI) (day 9, day 10 and day 11, 1.33% in ointment, vs ALD/EP group, p=0.001): significantly lower | mean psoriasis area and severity index (PASI) (day 9, day 10 and day 11, 2.67% in ointment, vs ALD/EP group, p=0.001): significantly lower | mean score for degree of induration in the psoriasis induction region (day 9, 1.33% in ointment, vs ALD/Dermoval group, p=0.015): significantly higher | mean score for degree of induration in the psoriasis induction region (day 9, 1.33% in ointment, vs ALD/EP group, p=0.001): significantly lower | mean score for presence of erythema in the psoriasis induction region (day 9, 1.33% in ointment, vs ALD/EP group, p=0.002): significantly lower | mean score for degree of induration in the psoriasis induction region (day 9, 2.67% in ointment, vs ALD/EP group, p=0.001): significantly lower | mean score for presence of erythema in the psoriasis induction region (day 9, 2.67% in ointment, vs ALD/EP group, p=0.002): significantly lower | mean score for degree of desquamation in the psoriasis induction region (day 9 and day 10, 1.33% in ointment, vs ALD/EP group, p=0.001): significantly lower | mean score for degree of desquamation in the psoriasis induction region (day 9 and day 10, 2.67% in ointment, vs ALD/EP group, p=0.001): significantly lower | mean score for degree of induration in the psoriasis induction region (day 10, 1.33% in ointment, vs ALD/Dermoval group, p=0.025): significantly higher | mean score for presence of erythema in the psoriasis induction region (day 10, 1.33% in ointment, vs ALD/Dermoval group, p=0.037): significantly lower | mean score for degree of induration in the psoriasis induction region [2]: significantly lower | mean score for presence of erythema in the psoriasis induction region [2]: significantly lower | mean score for degree of induration in the psoriasis induction region (day 10, 2.67% in ointment, vs ALD/Dermoval group, p=0.025): significantly higher | mean score for presence of erythema in the psoriasis induction region (day 10, 2.67% in ointment, vs ALD/Dermoval group, p=0.079): tendency to be significantly lower | mean score for degree of induration in the psoriasis induction region [3]: significantly lower | mean score for presence of erythema in the psoriasis induction region [3]: significantly lower | mean score for degree of desquamation in the psoriasis induction region (day 11, 1.33% in ointment, vs ALD/Dermoval group): significantly higher | mean score for presence of erythema in the psoriasis induction region (day 11, 1.33% in ointment, vs ALD/Dermoval group, p=0.001): significantly lower | mean score for degree of induration in the psoriasis induction region (day 11, 1.33% in ointment, vs ALD/Dermoval group, p=0.063): tendency to be significantly higher | mean score for degree of desquamation in the psoriasis induction region [4]: significantly lower | mean score for degree of induration in the psoriasis induction region [4]: significantly lower | mean score for presence of erythema in the psoriasis induction region [4]: significantly lower | mean score for presence of erythema in the psoriasis induction region (day 11, 2.67% in ointment, vs ALD/Dermoval group, p=0.014): significantly lower | mean score for degree of desquamation in the psoriasis induction region (day 11, 2.67% in ointment, vs ALD/Dermoval group, p=0.059): tended to be significantly higher | mean score for degree of desquamation in the psoriasis induction region [5]: significantly lower | mean score for degree of induration in the psoriasis induction region [5]: significantly lower | mean score for presence of erythema in the psoriasis induction region [5]: significantly lower
